In patent EP4722207A1, “OXOISOINDOLINYL-SUBSTITUTED TETRAHYDROPYRIMIDINEDIONE DERIVATIVE AND USE THEREOF” (Gluetacs Therapeutics (Shanghai) Co., Ltd., priority 2023, dated 2024):

Assays:
[1] = system: MDA-MB-231; experiment: Cell viability assay (CellTiter-Meiluncell Luminescent), tumor cell proliferation, MDA-MB-231; conditions: Homo sapiens, MDA-MB-231, 96 h; for inhibition at 0.01 µM: read-out: Inhibition Rate at 10 nM (%); for inhibition at 0.5 µM: read-out: Inhibition Rate at 500 nM (%)
[2] = system: H292; experiment: Cell viability assay (CellTiter-Meiluncell Luminescent), tumor cell proliferation, H292; conditions: Homo sapiens, NCI-H292, 96 h; for inhibition at 0.01 µM: read-out: Inhibition Rate at 10 nM (%); for inhibition at 0.5 µM: read-out: Inhibition Rate at 500 nM (%)
[3] = molecular target: T1, WEE1 (Homo sapiens, UniProt P30291+Q96SW2); experiment: Western-blot assay, substrate protein degradation in hPBMCs: WEE1; assay type: cell-based; conditions: 24 hours of compound treatment, 50 nM and 500 nM
T1 construct: effects of the compounds of the present disclosure on the expression of target proteins in cells; endogenous in cells; host or cells: human PBMCs (hPBMCs)
T1 sequence (P30291 whole entry): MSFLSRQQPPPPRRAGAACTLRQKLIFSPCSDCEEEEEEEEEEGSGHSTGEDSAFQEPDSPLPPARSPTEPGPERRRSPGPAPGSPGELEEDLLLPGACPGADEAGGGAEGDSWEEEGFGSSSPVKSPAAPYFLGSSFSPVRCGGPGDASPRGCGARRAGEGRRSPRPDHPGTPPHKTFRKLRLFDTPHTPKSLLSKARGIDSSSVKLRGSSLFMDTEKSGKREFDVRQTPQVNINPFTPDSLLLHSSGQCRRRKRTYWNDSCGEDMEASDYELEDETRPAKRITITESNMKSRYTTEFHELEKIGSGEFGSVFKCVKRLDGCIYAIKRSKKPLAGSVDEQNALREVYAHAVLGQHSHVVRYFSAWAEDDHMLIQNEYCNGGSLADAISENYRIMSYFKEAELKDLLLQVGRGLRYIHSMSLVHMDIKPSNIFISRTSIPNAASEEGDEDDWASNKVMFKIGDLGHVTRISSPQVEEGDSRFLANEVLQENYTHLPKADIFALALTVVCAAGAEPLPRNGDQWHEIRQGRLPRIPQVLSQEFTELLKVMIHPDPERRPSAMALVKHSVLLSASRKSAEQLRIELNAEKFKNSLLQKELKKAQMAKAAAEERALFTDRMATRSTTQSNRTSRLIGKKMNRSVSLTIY
T1 sequence (Q96SW2 whole entry): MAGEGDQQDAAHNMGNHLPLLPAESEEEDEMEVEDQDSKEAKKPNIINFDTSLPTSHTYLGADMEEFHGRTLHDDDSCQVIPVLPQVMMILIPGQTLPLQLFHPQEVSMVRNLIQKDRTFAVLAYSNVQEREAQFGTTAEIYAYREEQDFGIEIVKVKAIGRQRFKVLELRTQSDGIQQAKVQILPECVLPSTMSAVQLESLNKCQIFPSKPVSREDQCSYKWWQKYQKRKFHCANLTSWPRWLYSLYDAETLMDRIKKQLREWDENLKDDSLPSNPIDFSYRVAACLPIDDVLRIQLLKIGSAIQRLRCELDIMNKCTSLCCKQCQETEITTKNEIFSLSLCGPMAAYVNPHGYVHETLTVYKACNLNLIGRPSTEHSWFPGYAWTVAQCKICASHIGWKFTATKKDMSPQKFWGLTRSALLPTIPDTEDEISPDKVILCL
T1 sequence (Q16531 whole entry partner): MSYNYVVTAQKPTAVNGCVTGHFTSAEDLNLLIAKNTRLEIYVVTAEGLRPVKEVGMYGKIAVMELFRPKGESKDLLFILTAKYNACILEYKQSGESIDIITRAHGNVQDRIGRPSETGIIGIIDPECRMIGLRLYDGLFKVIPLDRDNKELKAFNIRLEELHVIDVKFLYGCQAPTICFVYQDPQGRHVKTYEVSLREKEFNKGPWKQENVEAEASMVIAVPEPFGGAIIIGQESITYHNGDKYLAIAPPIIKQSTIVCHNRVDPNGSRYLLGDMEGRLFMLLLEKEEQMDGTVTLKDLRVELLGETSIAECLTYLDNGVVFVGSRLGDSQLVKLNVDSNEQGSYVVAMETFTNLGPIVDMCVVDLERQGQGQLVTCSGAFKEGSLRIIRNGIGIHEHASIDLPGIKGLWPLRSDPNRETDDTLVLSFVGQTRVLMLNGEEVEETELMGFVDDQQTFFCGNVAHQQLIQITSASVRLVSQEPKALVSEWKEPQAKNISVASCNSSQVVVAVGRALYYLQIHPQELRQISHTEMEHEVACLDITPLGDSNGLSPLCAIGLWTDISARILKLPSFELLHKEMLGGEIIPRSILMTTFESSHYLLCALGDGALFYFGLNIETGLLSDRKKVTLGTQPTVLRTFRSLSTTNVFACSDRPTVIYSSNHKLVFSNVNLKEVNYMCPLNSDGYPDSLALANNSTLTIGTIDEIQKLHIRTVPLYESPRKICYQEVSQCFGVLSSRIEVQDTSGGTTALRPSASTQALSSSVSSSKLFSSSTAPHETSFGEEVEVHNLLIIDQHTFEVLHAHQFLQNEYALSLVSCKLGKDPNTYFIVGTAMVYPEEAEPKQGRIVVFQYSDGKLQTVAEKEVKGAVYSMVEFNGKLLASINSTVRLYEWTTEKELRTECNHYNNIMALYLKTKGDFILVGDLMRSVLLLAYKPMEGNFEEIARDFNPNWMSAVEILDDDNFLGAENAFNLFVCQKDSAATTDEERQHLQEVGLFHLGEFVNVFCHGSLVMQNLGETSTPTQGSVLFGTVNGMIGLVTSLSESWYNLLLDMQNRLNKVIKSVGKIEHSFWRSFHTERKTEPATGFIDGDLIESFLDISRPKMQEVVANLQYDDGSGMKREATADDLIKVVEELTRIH

[4] = molecular target: T2, IKZF1 (Homo sapiens, UniProt Q13422+Q96SW2); experiment: Western-blot assay, substrate protein degradation in hPBMCs: IKZF1; assay type: cell-based; conditions: 24 hours of compound treatment, 50 nM and 500 nM
T2 construct: effects of the compounds of the present disclosure on the expression of target proteins in cells; endogenous in cells; host or cells: human PBMCs (hPBMCs)
T2 sequence (Q13422 whole entry): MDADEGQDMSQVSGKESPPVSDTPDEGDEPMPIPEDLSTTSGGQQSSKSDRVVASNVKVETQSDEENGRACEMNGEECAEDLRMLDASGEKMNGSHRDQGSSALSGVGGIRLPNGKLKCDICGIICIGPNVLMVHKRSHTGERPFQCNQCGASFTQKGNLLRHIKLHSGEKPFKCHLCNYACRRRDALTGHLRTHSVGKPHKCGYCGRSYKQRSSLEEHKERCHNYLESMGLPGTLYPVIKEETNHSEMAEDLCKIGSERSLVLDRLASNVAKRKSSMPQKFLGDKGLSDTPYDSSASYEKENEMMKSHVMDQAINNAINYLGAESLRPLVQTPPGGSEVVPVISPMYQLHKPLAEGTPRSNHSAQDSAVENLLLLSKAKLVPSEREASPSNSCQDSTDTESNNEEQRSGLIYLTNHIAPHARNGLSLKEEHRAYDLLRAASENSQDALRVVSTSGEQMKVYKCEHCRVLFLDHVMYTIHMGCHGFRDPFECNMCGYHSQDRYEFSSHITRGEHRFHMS
T2 sequence (Q96SW2 whole entry): as the sequence (Q96SW2 whole entry) above
T2 sequence (Q16531 whole entry partner): as the sequence (Q16531 whole entry partner) above

[5] = molecular target: T3, IKZF2 (Homo sapiens, UniProt Q96SW2+Q9UKS7); experiment: Western-blot assay, substrate protein degradation in hPBMCs: IKZF2; assay type: cell-based; conditions: 24 hours of compound treatment, 50 nM and 500 nM
T3 construct: effects of the compounds of the present disclosure on the expression of target proteins in cells; endogenous in cells; host or cells: human PBMCs (hPBMCs)
T3 sequence (Q9UKS7 whole entry): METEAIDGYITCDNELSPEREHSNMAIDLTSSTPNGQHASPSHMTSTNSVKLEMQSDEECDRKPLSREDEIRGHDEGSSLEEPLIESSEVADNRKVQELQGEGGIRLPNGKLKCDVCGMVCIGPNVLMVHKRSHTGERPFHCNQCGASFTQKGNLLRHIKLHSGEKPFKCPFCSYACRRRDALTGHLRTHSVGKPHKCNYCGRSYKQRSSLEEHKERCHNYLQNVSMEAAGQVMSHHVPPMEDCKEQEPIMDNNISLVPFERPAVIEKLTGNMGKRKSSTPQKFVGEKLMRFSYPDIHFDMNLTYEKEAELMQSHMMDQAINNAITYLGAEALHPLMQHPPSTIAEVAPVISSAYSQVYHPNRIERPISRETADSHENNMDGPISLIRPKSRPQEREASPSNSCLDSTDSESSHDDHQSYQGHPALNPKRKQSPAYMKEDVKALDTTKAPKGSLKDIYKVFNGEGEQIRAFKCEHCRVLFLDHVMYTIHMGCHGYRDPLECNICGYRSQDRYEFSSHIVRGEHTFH
T3 sequence (Q96SW2 whole entry): as the sequence (Q96SW2 whole entry) above
T3 sequence (Q16531 whole entry partner): as the sequence (Q16531 whole entry partner) above

[6] = molecular target: T4, IKZF3 (Homo sapiens, UniProt Q96SW2+Q9UKT9); experiment: Western-blot assay, substrate protein degradation in hPBMCs: IKZF3; assay type: cell-based; conditions: 24 hours of compound treatment, 50 nM and 500 nM
T4 construct: effects of the compounds of the present disclosure on the expression of target proteins in cells; endogenous in cells; host or cells: human PBMCs (hPBMCs)
T4 sequence (Q9UKT9 whole entry): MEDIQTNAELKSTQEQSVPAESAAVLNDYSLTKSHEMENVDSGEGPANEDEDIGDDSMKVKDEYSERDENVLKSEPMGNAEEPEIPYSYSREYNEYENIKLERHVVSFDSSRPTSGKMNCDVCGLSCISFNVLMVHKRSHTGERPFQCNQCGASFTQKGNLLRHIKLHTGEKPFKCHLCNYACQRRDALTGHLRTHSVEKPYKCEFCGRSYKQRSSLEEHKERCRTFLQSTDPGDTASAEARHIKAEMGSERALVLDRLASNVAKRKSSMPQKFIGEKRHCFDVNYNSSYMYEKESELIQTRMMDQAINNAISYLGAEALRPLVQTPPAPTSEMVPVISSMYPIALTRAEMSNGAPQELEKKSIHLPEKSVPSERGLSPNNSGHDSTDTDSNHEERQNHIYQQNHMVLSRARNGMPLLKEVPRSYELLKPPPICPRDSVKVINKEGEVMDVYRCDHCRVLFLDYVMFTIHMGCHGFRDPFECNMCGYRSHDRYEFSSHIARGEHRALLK
T4 sequence (Q96SW2 whole entry): as the sequence (Q96SW2 whole entry) above
T4 sequence (Q16531 whole entry partner): as the sequence (Q16531 whole entry partner) above

[7] = molecular target: T5, GSPT1 (Homo sapiens, UniProt P15170+Q96SW2); experiment: Western-blot assay, substrate protein degradation in hPBMCs: GSPT1; assay type: cell-based; conditions: 24 hours of compound treatment, 50 nM and 500 nM
T5 construct: effects of the compounds of the present disclosure on the expression of target proteins in cells; endogenous in cells; host or cells: human PBMCs (hPBMCs)
T5 sequence (P15170 whole entry): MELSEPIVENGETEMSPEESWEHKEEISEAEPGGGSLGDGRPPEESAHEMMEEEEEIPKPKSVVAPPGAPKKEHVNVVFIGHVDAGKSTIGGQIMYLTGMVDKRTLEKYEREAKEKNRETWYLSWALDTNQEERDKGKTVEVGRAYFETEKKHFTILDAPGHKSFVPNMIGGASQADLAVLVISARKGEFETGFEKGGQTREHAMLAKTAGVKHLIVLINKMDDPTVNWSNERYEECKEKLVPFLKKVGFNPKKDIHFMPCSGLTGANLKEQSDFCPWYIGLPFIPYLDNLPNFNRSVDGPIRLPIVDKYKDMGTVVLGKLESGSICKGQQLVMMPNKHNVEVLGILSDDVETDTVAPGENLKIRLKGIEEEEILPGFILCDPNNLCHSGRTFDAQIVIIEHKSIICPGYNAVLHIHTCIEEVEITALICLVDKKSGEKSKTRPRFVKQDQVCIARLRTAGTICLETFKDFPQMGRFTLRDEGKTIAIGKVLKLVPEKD
T5 sequence (Q96SW2 whole entry): as the sequence (Q96SW2 whole entry) above
T5 sequence (Q16531 whole entry partner): as the sequence (Q16531 whole entry partner) above

[8] = molecular target: T6, CK1α (Homo sapiens, UniProt P48729+Q96SW2); experiment: Western-blot assay, substrate protein degradation in hPBMCs: CK1α; assay type: cell-based; conditions: 24 hours of compound treatment, 50 nM and 500 nM
T6 construct: effects of the compounds of the present disclosure on the expression of target proteins in cells; endogenous in cells; host or cells: human PBMCs (hPBMCs)

[9] = system: MV-4-11; experiment: Cell viability assay (CellTiter-Meiluncell Luminescent), tumor cell proliferation, MV-4-11; conditions: Homo sapiens, MV4-11, 96 h; for inhibition at 0.01 µM: read-out: Inhibition Rate at 10 nM (%); for inhibition at 0.5 µM: read-out: Inhibition Rate at 500 nM (%)

SMILES	inhibition at 0.01 µM [1]	inhibition at 0.5 µM [1]	inhibition at 0.01 µM [2]	inhibition at 0.5 µM [2]	substrate protein remaining % WEE1 [3]	substrate protein remaining % IKZF1 [4]	substrate protein remaining % IKZF2 [5]	substrate protein remaining % IKZF3 [6]	substrate protein remaining % GSPT1 [7]	substrate protein remaining % CK1α [8]	inhibition at 0.01 µM [9]	inhibition at 0.5 µM [9]
CC1(C)[C@@H]2CC[C@]1(CS(=O)(=O)NCc1ccc3c(c1)C(=O)N(N1CCC(=O)NC1=O)C3=O)C(=O)C2 [GT-07998, 1-((1R,4R)-7,7-dimethyl-2-oxobicyclo[2.2.1]heptan-1-yl)-N-((2-(2,4-dioxotetrahydropyrimidin-1(2H)-yl)-1,3-dioxoisoindolin-5-yl)methyl)methanesulfonamide]	25 to 40%	10 to 15%	15 to 20%	1 to 5%								
Cc1csc2ncnc(N3CCN(Cc4ccc5c(c4)CN(N4CCC(=O)NC4=O)C5=O)CC3)c12 [GT-08058, 1-(5-((4-(5-methylthieno[2,3-d]pyrimidin-4-yl)piperazin-1-yl)methyl)-1-oxoisoindolin-2-yl)dihydropyrimidine-2,4(1H,3H)-dione]	25 to 40%	15 to 18%			B (80%< substrate protein remaining %≤ 100%)	A (0% ≤ substrate protein remaining % ≤ 80%)	B (80%< substrate protein remaining %≤ 100%)	B (80%< substrate protein remaining %≤ 100%)	B (80%< substrate protein remaining %≤ 100%)	B (80%< substrate protein remaining %≤ 100%)		
O=C1CCN(N2Cc3cc(CN4CCN(c5ncnc6sc(-c7ccccc7)cc56)CC4)ccc3C2=O)C(=O)N1 [GT-08064, 1-(1-oxo-5-((4-(6-phenylthieno[2,3-d]pyrimidin-4-yl)piperazin-1-yl)methyl)isoindolin-2-yl)dihydropyrimidine-2,4(1H,3H)-dione]					B (80%< substrate protein remaining %≤ 100%)	B (80%< substrate protein remaining %≤ 100%)	A (0% ≤ substrate protein remaining % ≤ 80%)	B (80%< substrate protein remaining %≤ 100%)	B (80%< substrate protein remaining %≤ 100%)	B (80%< substrate protein remaining %≤ 100%)	25 to 30%	10 to 18%
Cc1nc(N2CCN(Cc3ccc4c(c3)CN(N3CCC(=O)NC3=O)C4=O)CC2)c2ccsc2n1 [GT-08067, 1-(5-((4-(2-methylthieno[2,3-d]pyrimidin-4-yl)piperazin-1-yl)methyl)-1-oxoisoindolin-2-yl)dihydropyrimidine-2,4(1H,3H)-dione]			20 to 40%	20 to 40%	B (80%< substrate protein remaining %≤ 100%)	B (80%< substrate protein remaining %≤ 100%)	A (0% ≤ substrate protein remaining % ≤ 80%)	B (80%< substrate protein remaining %≤ 100%)	B (80%< substrate protein remaining %≤ 100%)	B (80%< substrate protein remaining %≤ 100%)	60 to 80%	40 to 60%
Cc1nc(N2CCN(Cc3ccc4c(c3)CN(N3CCC(=O)NC3=O)C4=O)CC2)c2c3c(sc2n1)CCCC3 [GT-08068, 1-(5-((4-(2-methyl-5,6,7,8-tetrahydrobenzo[4,5]thieno[2,3-d]pyrimidin-4-yl)piperazin-1-yl)methyl)-1-oxoisoindolin-2-yl)dihydropyrimidine-2,4(1H,3H)-dione]			20 to 40%	20 to 40%	B (80%< substrate protein remaining %≤ 100%)	B (80%< substrate protein remaining %≤ 100%)	A (0% ≤ substrate protein remaining % ≤ 80%)	B (80%< substrate protein remaining %≤ 100%)	B (80%< substrate protein remaining %≤ 100%)	A (0% ≤ substrate protein remaining % ≤ 80%)	18 to 25%	18 to 25%
O=C1CCN(N2Cc3cc(CN4CCN(c5ncnc6sc7c(c56)CCCC7)CC4)ccc3C2=O)C(=O)N1 [GT-08077, 1-(1-oxo-5-((4-(5,6,7,8-tetrahydrobenzo[4,5]thieno[2,3-d]pyrimidin-4-yl)piperazin-1-yl)methyl)isoindolin-2-yl)dihydropyrimidine-2,4(1H,3H)-dione]					B (80%< substrate protein remaining %≤ 100%)	B (80%< substrate protein remaining %≤ 100%)	B (80%< substrate protein remaining %≤ 100%)	B (80%< substrate protein remaining %≤ 100%)	A (0% ≤ substrate protein remaining % ≤ 80%)	A (0% ≤ substrate protein remaining % ≤ 80%)	25 to 30%	25 to 30%
Cc1cc2c(N3CCN(Cc4ccc5c(c4)C(=O)N(N4CCC(=O)NC4=O)C5=O)CC3)ncnc2s1 [GT-08092, 2-(2,4-dioxotetrahydropyrimidin-1(2H)-yl)-5-((4-(6-methylthieno[2,3-d]pyrimidin-4-yl)piperazin-1-yl)methyl)isoindoline-1,3-dione]					A (0% ≤ substrate protein remaining % ≤ 80%)	B (80%< substrate protein remaining %≤ 100%)	B (80%< substrate protein remaining %≤ 100%)	B (80%< substrate protein remaining %≤ 100%)	A (0% ≤ substrate protein remaining % ≤ 80%)	A (0% ≤ substrate protein remaining % ≤ 80%)	10 to 18%	30 to 40%
Cc1sc2ncnc(N3CCCN(Cc4ccc5c(c4)C(=O)N(N4CCC(=O)NC4=O)C5=O)CC3)c2c1C [GT-08095, 5-((4-(5,6-dimethylthieno[2,3-d]pyrimidin-4-yl)-1,4-diazepan-1-yl)methyl)-2-(2,4-dioxotetrahydropyrimidin-1(2H)-yl)isoindoline-1,3-dione]					A (0% ≤ substrate protein remaining % ≤ 80%)	B (80%< substrate protein remaining %≤ 100%)	B (80%< substrate protein remaining %≤ 100%)	B (80%< substrate protein remaining %≤ 100%)	B (80%< substrate protein remaining %≤ 100%)	A (0% ≤ substrate protein remaining % ≤ 80%)	25 to 30%	18 to 25%
O=C1CCN(N2C(=O)c3ccc(CN4CCC(c5ncnc6sccc56)CC4)cc3C2=O)C(=O)N1 [GT-08106, 2-(2,4-dioxotetrahydropyrimidin-1(2H)-yl)-5-((4-(thieno[2,3-d]pyrimidin-4-yl)piperidin-1-yl)methyl)isoindoline-1,3-dione]					A (0% ≤ substrate protein remaining % ≤ 80%)	B (80%< substrate protein remaining %≤ 100%)	B (80%< substrate protein remaining %≤ 100%)	B (80%< substrate protein remaining %≤ 100%)	A (0% ≤ substrate protein remaining % ≤ 80%)	B (80%< substrate protein remaining %≤ 100%)	10 to 18%	18 to 25%
Cc1cc2c(C3CCN(Cc4ccc5c(c4)C(=O)N(N4CCC(=O)NC4=O)C5=O)CC3)ncnc2s1 [GT-08107, 2-(2,4-dioxotetrahydropyrimidin-1(2H)-yl)-5-((4-(6-methylthieno[2,3-d]pyrimidin-4-yl)piperidin-1-yl)methyl)isoindoline-1,3-dione]			5 to 10%	10 to 15%	A (0% ≤ substrate protein remaining % ≤ 80%)	A (0% ≤ substrate protein remaining % ≤ 80%)	A (0% ≤ substrate protein remaining % ≤ 80%)	A (0% ≤ substrate protein remaining % ≤ 80%)	A (0% ≤ substrate protein remaining % ≤ 80%)	A (0% ≤ substrate protein remaining % ≤ 80%)	30 to 40%	40 to 60%
O=C1CCN(N2C(=O)c3ccc(CN4CCN(c5nccc(Cl)c5F)CC4)cc3C2=O)C(=O)N1 [GT-08190, 5-((4-(4-chloro-3-fluoropyridin-2-yl)piperazin-1-yl)methyl)-2-(2,4-dioxotetrahydropyrimidin-1(2H)-yl)isoindoline-1,3-dione]	18 to 25%	10 to 15%	20 to 40%	20 to 40%								
